In paper PMC4823038 (Oncotarget, 2015):
Where two headings read alike, the source gives them in different places.

Assays:
[1] = test system: HT29 human colon tumor xenografts; experiment: Antitumor study, HT29 human colon tumor xenografts; details: HT29
Experimental: (§1) Compound tolerability and pharmacokinetic investigations were carried out in female BALB/c mice (Charles River). Human tumor xenografts were established s.c. in female CRTac:Ncr-Fox1(nu) athymic mice and treated as previously described. […] Initial treatment groups contained from 6 to 10 mice and animals were inspected daily and tumor size and volume measured every 2 or 3 days. Tumor volume and growth delay were determined as previously described.

Eμ-Myc driven lymphoma = test system: Eμ-Myc driven lymphoma; parameters: method as in PMID 22120667; details: 5mg/kg × 9 days; cited from earlier work
[2] = Antitumor study, HT29 human colon tumor xenografts; details: female, mouse, in vivo, iv
Experimental: as §1

[3] = test system: SW620 colon cancer xenografts; experiment: Antitumor study, SW620 colon cancer xenografts; format: in vivo, mice
Experimental: as §1

CDK1 = CDK1 (Homo sapiens, UniProt P06493); experiment: CDK1 kinase IC50 determination (DELFIA / 33P radiometric); format: biochemical
Experimental: (§2) Other kinase IC50 determinations for CHK2 and FLT3 were performed using a commercial assay (Z'-Lyte, Invitrogen) or in-house with recombinant human CHK1 on a LabChip® EZ Reader II (PerkinElmer) or CDK1 in a DELFIA assay (PerkinElmer).

CHK2 = biological target: T1, CHK2 (Homo sapiens, UniProt O96017); experiment: CHK2 kinase IC50 determination (Z'-Lyte); format: biochemical
T1 construct: purchased Invitrogen
Experimental: as §2

124 human kinases = experiment: 33P radiometric kinase profiling; format: biochemical; details: 10μM, 124 kinases, ATP at Km
Calu6 = experiment: Mitosis induction assay (MIA), abrogation of etoposide-induced G2 checkpoint; format: cell-based; details: Homo sapiens, Calu-6, mean±SD
Experimental: (§3) Assays were performed as described. […] Inhibition of intracellular CHK1 activity was measured using a cell based ELISA for the abrogation of an etoposide induced G2 checkpoint (mitosis induction assay, MIA [24]). The IC50 for G2 checkpoint abrogation (MIA) was determined in the presence of nocodazole using UCN01 as a positive control. […] PI values > 1 indicate potentiation of the genotoxic activity.

HT29 = experiment: as above; format: cell-based; details: Homo sapiens, HT-29, mean±SD
Experimental: as §3

SW620 = experiment: as above; format: cell-based; details: Homo sapiens, SW-620, mean±SD
Experimental: as §3

[4] = test system: cellular CHK1 activity, four cell lines; experiment: MIA, range over four cell lines; format: cell-based; details: Homo sapiens, read-out: IC50 for cellular CHK1 inhibition (MIA), range
Experimental: as §3

[5] = test system: four human tumor cell lines; experiment: SRB cytotoxicity, range over four cell lines; format: cell-based; details: read-out: GI50 single-agent, range
[6] = test system: pS296 CHK1 in HT29 colon tumor cells; experiment: Western blot of gemcitabine-induced biomarkers in cells; format: cell-based, human; details: added to gemcitabine
Experimental: (§4) Western blotting was carried out as described. ELISA assays for pS296 CHK1 and total CHK1 were developed and validated for use in vitro and in tumor homogenates. Tumor samples for ELISA and western blotting were lysed in CHAPS buffer (1% CHAPS in 150mM NaCl, 50mM Tris-HCl pH 8.0, 1mM EDTA, 0.2mM PMSF and 1:50 Sigma Phosphatase inhibitors 2 and 3 and 1:100 Sigma protease cocktail) and immunoblotted. ELISA assays were based on commercially available kits with modifications (Cell Signalling Technologies). For pS296 CHK1 detection the commercial pS317 CHK1 antibody was replaced with a pS296 CHK1 antibody (Cell Signalling Technology). Xenograft tumor homogenate was added in duplicate to 96 well plates (100μl containing 40ug protein) and quantification of the colorimetric readout was determined at 450nm using a PerkinElmer 2103 EnVision Multilabel plate reader.

[7] = test system: HT29 colon carcinoma cells; experiment: Cell cycle analysis (BrdU/PI); format: cell-based, human
From the text: Cell cycle analysis using propidium iodide and bromodeoxyuridine staining was as described.

[8] = Pharmacokinetics in BALB/c mice; format: in vivo; details: for bioavailability: BALB/c, 10mg/kg p.o. vs i.v., read-out: oral bioavailability (F)
Experimental: (§5) Human tumor xenografts were established s.c. in female […]) athymic mice and treated as previously described. […] Compounds were extracted from whole blood, plasma and tissue homogenates with methanol-containing internal standards using established protocols. Drug concentrations were determined using liquid chromatography/tandem mass spectrometry (LC/MS-MS) and pharmacokinetics were calculated using Pharsight WinNonLin software (version 5.2.1) as previously described.

Plasma protein binding = format: in vitro ADME; details: mouse, nude mice
[9] = Permeability across CaCo2 cell monolayer; format: in vitro ADME
[10] = Tumor drug concentration in HT29 xenografts; format: in vivo, mice; details: female, CRTac:Ncr-Fox1(nu) athymic, mouse, oral, 24h following 12.5mg/kg p.o., with gemcitabine
Experimental: as §5

[11] = test system: pS296 CHK1 in HT29 tumor xenografts; experiment: PK-PD biomarker study in HT29 tumor xenografts; format: in vivo, mice; details: 50 or 100mg/kg p.o. 24h after gemcitabine 100mg/kg i.v.; P < 0.05
Experimental: as §4

[12] = test system: Calu6 RAS mutant NSCLC human tumor xenograft; experiment: Antitumor study, Calu6 RAS mutant NSCLC xenografts; format: in vivo, mice
Experimental: Compound tolerability and pharmacokinetic investigations were carried out in female BALB/c mice (Charles River). Human tumor xenografts were established s.c. in female CRTac:Ncr-Fox1(nu) athymic mice and treated as previously described [24, 28]. […] Initial treatment groups contained from 6 to 10 mice and animals were inspected daily and tumor size and volume measured every 2 or 3 days. Tumor volume and growth delay were determined as previously described [28].

[13] = test system: pS296 CHK1 in Calu6 xenograft tumors; experiment: PD biomarkers in Calu6 xenograft tumors (western blot); format: in vivo, mice; details: Calu6 xenografts, 6h after last dose of CCT245737 150mg/kg p.o.
Experimental: as §4

[14] = test system: Eμ-Myc driven B-cell lymphoma; experiment: Eμ-Myc driven transgenic mouse transplant model of B-cell lymphoma; format: in vivo, mice; details: 150mg/kg p.o. once daily for 9 days
From the text: Transgenic Eμ-Myc mice which develop aggressive infiltrating lymphoma were established and monitored as previously described. To generate transgenic Eμ-Myc driven lymphoma allografts, tumor cells from 3 separate tumors were harvested, cells counted and injected via a tail vein. Six mice were set up per tumor to provide 3 control and 3 treated animals, giving a maximum of 9 mice per treatment group. Animals were monitored daily and continuously using RFID transponders to measure temperature, activity and water consumption as previously described. […] Bone marrow cellularity was also determined to check for tumor cell involvement. All mice were handled in compliance with local and national animal welfare guidelines.

Sequence of CDK1 (P06493 whole entry): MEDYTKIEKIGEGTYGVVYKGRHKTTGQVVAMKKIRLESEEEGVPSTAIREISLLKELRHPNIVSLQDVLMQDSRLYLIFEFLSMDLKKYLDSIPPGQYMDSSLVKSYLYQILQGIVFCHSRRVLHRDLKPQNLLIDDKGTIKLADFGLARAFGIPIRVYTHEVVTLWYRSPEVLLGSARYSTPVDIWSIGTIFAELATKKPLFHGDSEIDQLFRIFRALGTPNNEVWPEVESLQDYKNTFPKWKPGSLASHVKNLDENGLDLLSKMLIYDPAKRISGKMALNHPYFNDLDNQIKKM
Sequence of CDK1 (P14635 whole entry partner): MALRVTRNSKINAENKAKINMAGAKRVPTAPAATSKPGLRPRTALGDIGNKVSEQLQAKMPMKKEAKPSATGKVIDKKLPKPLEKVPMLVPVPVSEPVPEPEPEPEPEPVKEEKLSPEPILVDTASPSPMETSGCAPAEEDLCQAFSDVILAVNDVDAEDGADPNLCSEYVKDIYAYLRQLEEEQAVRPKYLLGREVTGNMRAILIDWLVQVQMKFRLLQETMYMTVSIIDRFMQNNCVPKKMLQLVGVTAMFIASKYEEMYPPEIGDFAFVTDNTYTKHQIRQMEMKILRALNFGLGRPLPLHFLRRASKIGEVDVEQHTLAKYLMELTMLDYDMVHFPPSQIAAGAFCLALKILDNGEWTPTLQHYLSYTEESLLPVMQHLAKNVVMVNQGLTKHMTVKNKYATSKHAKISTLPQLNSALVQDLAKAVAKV
T1 sequence (O96017 whole entry): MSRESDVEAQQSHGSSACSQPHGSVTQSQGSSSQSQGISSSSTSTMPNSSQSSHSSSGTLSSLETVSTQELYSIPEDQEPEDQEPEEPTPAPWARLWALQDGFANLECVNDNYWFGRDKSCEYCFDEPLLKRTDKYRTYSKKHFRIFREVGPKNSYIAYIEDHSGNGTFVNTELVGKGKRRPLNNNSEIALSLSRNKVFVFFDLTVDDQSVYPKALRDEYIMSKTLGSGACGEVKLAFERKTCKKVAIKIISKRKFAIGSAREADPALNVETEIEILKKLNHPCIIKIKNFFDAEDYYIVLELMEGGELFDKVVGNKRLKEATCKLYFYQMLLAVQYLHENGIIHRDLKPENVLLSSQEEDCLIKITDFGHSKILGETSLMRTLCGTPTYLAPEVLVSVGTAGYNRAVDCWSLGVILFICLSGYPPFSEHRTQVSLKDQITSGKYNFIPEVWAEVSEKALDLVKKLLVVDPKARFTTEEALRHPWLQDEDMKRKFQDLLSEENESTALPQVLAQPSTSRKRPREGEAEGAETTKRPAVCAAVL

CCc1c2c(nc3ccc(OC(=O)N4CCC(N5CCCCC5)CC4)cc13)-c1cc3c(c(=O)n1C2)COC(=O)[C@]3(O)CC [irinotecan]
growth delay ([1]; alone, 25mg/kg i.p. days 0,4,8, mean±SD, n = 6): 6.2 ± 4.6 days

CN[C@@H]1C[C@H]2O[C@@](C)([C@@H]1OC)n1c3ccccc3c3c4c(c5c6ccccc6n2c5c31)C(=O)N[C@H]4O [UCN01]
antitumor activity in Eμ-Myc model (Eμ-Myc driven lymphoma): clear evidence of tumor growth inhibition | blood cell count (Eμ-Myc driven lymphoma): decreased blood cell count

Nc1ccn([C@@H]2O[C@H](CO)[C@@H](O)C2(F)F)c(=O)n1 [gemcitabine]
MTD [2]: 200 mg/kg | growth delay ([1]; alone, 100mg/kg i.v. days 0,7,14, mean±SD (Figure 3A)): -0.6 ± 2.7 days | growth delay ([1]; gemcitabine alone at the MTD of 200mg/kg i.v. (Figure 3B)): 6 days | growth delay ([1]; gemcitabine alone, fixed dose 100mg/kg i.v. (Figure 3B)): 3 days | growth delay ([3]; gemcitabine alone 100mg/kg i.v. days 0,4,8): 1.5 ± 2.3 days

N#Cc1cnc(Nc2cc(NC[C@H]3CNCCO3)c(C(F)(F)F)cn2)cn1 [CCT245737, (R)-5-((4-((morpholin-2-ylmethyl)amino)-5-(trifluoromethyl)pyridin-2-yl)amino)pyrazine-2-carbonitrile]
IC50 (CDK1): 1260 to 2440 nM | IC50 (CHK2): 9030 nM | number of kinases (including CHK1) with > 80% inhibition (124 human kinases): 12 kinases | IC50 (Calu6): 84 ± 7 nM | IC50 (HT29): 30 ± 12 nM | IC50 (SW620): 220 ± 47 nM | IC50 [4]: 30 to 220 nM | GI50 [5]: 410 to 5400 nM | concentration causing marked loss of pS296 signal [6]: ≥ 0.5 μM | concentration giving complete inhibition of pS296 signal [6]: ≥ 2 μM | effect on etoposide-induced G2/M block ([7]; after etoposide 50μM × 1h, increasing concentrations, 24h): abrogated this G2/M block | effect on cell cycle distribution, alone ([7]; up to 0.5μM for 24h): minimal effects | kinetics in whole blood (AUC vs dose) ([8]; BALB/c mice): linear kinetics | plasma clearance ([8]; BALB/c mice, 10mg/kg i.v.): 35 mL/min/kg | volume of distribution ([8]; BALB/c mice, 10mg/kg i.v.): 0.19 L | half-life ([8]; BALB/c mice, 10mg/kg i.v., plasma): 2.86 h | bioavailability ([8]; female, plasma, oral, mouse): 100% | bioavailability ([8]; female, plasma, po, mouse): 105% | Kp ([8]; female, mouse, spleen, other: both routes of administration (i.v. and p.o.), 10 mg/kg, BALB/c mice, both routes of administration, read-out: spleen concentration relative to plasma): 10 to 25 | fraction unbound at 10 μM (Plasma protein binding): 0.244 | Papp ([9]; human, Caco-2, CaCo2 cell monolayer, read-out: cell permeability Pe): 25 ×10⁻⁶ cm/s | active efflux by PGP ([9]; no asymmetry apical > basal or basal > apical): not a substrate for active efflux by PGP | concentration at 24 h [10]: ≥ 3000 nM | gemcitabine-induced pS296 CHK1 signal in tumor [11]: significantly reduced | growth delay ([1]; alone, 150mg/kg p.o. days 1,2,5,6,9,10 (irinotecan study), mean±SD): 1.0 ± 1.0 days | growth delay ([1]; alone, 150mg/kg p.o. days 1,2,8,9,15,16, mean±SD): 0.3 ± 3.4 days | body weight loss ([3]; combination with gemcitabine, day 9): 4.3% | increase in tumor growth delay ([12]; CCT245737 150mg/kg p.o. added to gemcitabine 100mg/kg i.v. + carboplatin 5mg/kg i.p., P < 0.001): 9 days | weight loss ([12]; combination with gemcitabine + carboplatin, nadir on day 3): 2% | gemcitabine + carboplatin induced pS296 CHK1 signal in tumor [13]: completely abolished | effects on normal tissues (lung, bone marrow, kidney) [14]: minimal effects | tolerability (body weights) [14]: well tolerated | weight of inguinal, brachial/axillary and mesenteric lymph nodes vs vehicle ([14]; P < 0.05): significantly reduced | spleen weight ([14]; p < 0.01): increased significantly
